Results from PubChem BioAssay AID1259407 (Chemical Carcinogenesis Research Information System (CCRIS), 2018).
Activity calls are given as the source filed them. No rule for the calls is given here.

System: CCRIS mutagenicity, Ames/micronucleus/aberration tests
Assay: CCRIS mutagenicity studies

Measured: mutagenic call

O=C(O)CN(CC(=O)O)CC(=O)O
active: End Point: IN VITRO MICRONUCLEUS, Test System: CHINESE HAMSTER EMBRYONIC LUNG (CL-1) CELLS, Metabolic Activation: NONE active; positive at higher doses | End Point: In vitro micronucleus, Test System: CTLL-2 T mouse lymphocyte cells, Metabolic Activation: None active; positive | End Point: In vitro micronucleus, Test System: CTLL-2 bcl2 mouse lymphocyte cells, Metabolic Activation: None active; positive | End Point: In vitro micronucleus, Test System: L5178Y mouse lymphoma cells, Metabolic Activation: None active; positive
inactive: End Point: IN VITRO CHROMOSOMAL ABERRATIONS, Test System: CHO CELLS, Metabolic Activation: NONE inactive; negative | End Point: IN VITRO CHROMOSOMAL ABERRATIONS, Test System: CHO CELLS, Metabolic Activation: RAT, LIVER, S-9, AROCLOR 1254 inactive; negative | End Point: In vitro micronucleus, Test System: CTLL-2 T mouse lymphocyte cells, Metabolic Activation: Rat, Kidney, S9, Aroclor 1254 with NADP inactive; negative | End Point: In vitro micronucleus, Test System: CTLL-2 T mouse lymphocyte cells, Metabolic Activation: Rat, Kidney, S9, Aroclor 1254 with arachidonic acid instead of NADP inactive; negative | End Point: In vitro micronucleus, Test System: CTLL-2 T mouse lymphocyte cells, Metabolic Activation: Rat, Liver, S9, Aroclor 1254 inactive; negative | End Point: In vitro micronucleus, Test System: CTLL-2 bcl2 mouse lymphocyte cells, Metabolic Activation: Rat, Kidney, S9, Aroclor 1254 with NADP inactive; negative | End Point: In vitro micronucleus, Test System: CTLL-2 bcl2 mouse lymphocyte cells, Metabolic Activation: Rat, Kidney, S9, Aroclor 1254 with arachidonic acid instead of NADP inactive; negative | End Point: In vitro micronucleus, Test System: CTLL-2 bcl2 mouse lymphocyte cells, Metabolic Activation: Rat, Liver, S9, Aroclor 1254 inactive; negative | End Point: In vitro micronucleus, Test System: L5178Y mouse lymphoma cells, Metabolic Activation: Rat, Kidney, S9, Aroclor 1254 with NADP inactive; negative | End Point: In vitro micronucleus, Test System: L5178Y mouse lymphoma cells, Metabolic Activation: Rat, Kidney, S9, Aroclor 1254 with arachidonic acid instead of NADP inactive; negative | End Point: In vitro micronucleus, Test System: L5178Y mouse lymphoma cells, Metabolic Activation: Rat, Liver, S9, Aroclor 1254 inactive; negative | Test System: AMES SALMONELLA TYPHIMURIUM, Strain/Indicator: TA97, Metabolic Activation: HAMSTER, LIVER, S-9, AROCLOR 1254 (10 OR 30%), Method: PREINCUBATION inactive; negative | Test System: AMES SALMONELLA TYPHIMURIUM, Strain/Indicator: TA97, Metabolic Activation: NONE, Method: PREINCUBATION inactive; negative | Test System: AMES SALMONELLA TYPHIMURIUM, Strain/Indicator: TA97, Metabolic Activation: NONE, Method: SUSPENSION/PLATE inactive; negative | Test System: AMES SALMONELLA TYPHIMURIUM, Strain/Indicator: TA97, Metabolic Activation: RAT, LIVER, S-9, AROCLOR 1254 (10 OR 30%), Method: PREINCUBATION inactive; negative | Test System: AMES SALMONELLA TYPHIMURIUM, Strain/Indicator: TA98, Metabolic Activation: HAMSTER, LIVER, S-9, AROCLOR 1254 (10 OR 30%), Method: PREINCUBATION inactive; negative | Test System: AMES SALMONELLA TYPHIMURIUM, Strain/Indicator: TA98, Metabolic Activation: HAMSTER, LIVER, S-9, AROCLOR 1254, Method: STANDARD PLATE inactive; negative | Test System: AMES SALMONELLA TYPHIMURIUM, Strain/Indicator: TA98, Metabolic Activation: HAMSTER, LIVER, S-9, Method: STANDARD PLATE inactive; negative | Test System: AMES SALMONELLA TYPHIMURIUM, Strain/Indicator: TA98, Metabolic Activation: MOUSE, LIVER, S-9, AROCLOR 1254, Method: STANDARD PLATE inactive; negative | Test System: AMES SALMONELLA TYPHIMURIUM, Strain/Indicator: TA98, Metabolic Activation: MOUSE, LIVER, S-9, Method: STANDARD PLATE inactive; negative | Test System: AMES SALMONELLA TYPHIMURIUM, Strain/Indicator: TA98, Metabolic Activation: NONE, Method: PREINCUBATION inactive; negative | Test System: AMES SALMONELLA TYPHIMURIUM, Strain/Indicator: TA98, Metabolic Activation: NONE, Method: STANDARD PLATE inactive; negative | Test System: AMES SALMONELLA TYPHIMURIUM, Strain/Indicator: TA98, Metabolic Activation: NONE, Method: SUSPENSION/PLATE inactive; negative | Test System: AMES SALMONELLA TYPHIMURIUM, Strain/Indicator: TA98, Metabolic Activation: RAT, LIVER, S-9, AROCLOR 1254 (10 OR 30%), Method: PREINCUBATION inactive; negative | Test System: AMES SALMONELLA TYPHIMURIUM, Strain/Indicator: TA98, Metabolic Activation: RAT, LIVER, S-9, AROCLOR 1254, Method: STANDARD PLATE inactive; negative | Test System: AMES SALMONELLA TYPHIMURIUM, Strain/Indicator: TA98, Metabolic Activation: RAT, LIVER, S-9, Method: STANDARD PLATE inactive; negative | Test System: AMES SALMONELLA TYPHIMURIUM, Strain/Indicator: TA100(1,8-DNP6), Metabolic Activation: NONE, Method: SUSPENSION/PLATE inactive; negative | Test System: AMES SALMONELLA TYPHIMURIUM, Strain/Indicator: TA100(NR), Metabolic Activation: NONE, Method: SUSPENSION/PLATE inactive; negative | Test System: AMES SALMONELLA TYPHIMURIUM, Strain/Indicator: TA100, Metabolic Activation: HAMSTER, LIVER, S-9, AROCLOR 1254 (10 OR 30%), Method: PREINCUBATION inactive; negative | Test System: AMES SALMONELLA TYPHIMURIUM, Strain/Indicator: TA100, Metabolic Activation: HAMSTER, LIVER, S-9, AROCLOR 1254, Method: STANDARD PLATE inactive; negative | Test System: AMES SALMONELLA TYPHIMURIUM, Strain/Indicator: TA100, Metabolic Activation: HAMSTER, LIVER, S-9, Method: STANDARD PLATE inactive; negative | Test System: AMES SALMONELLA TYPHIMURIUM, Strain/Indicator: TA100, Metabolic Activation: MOUSE, LIVER, S-9, AROCLOR 1254, Method: STANDARD PLATE inactive; negative | Test System: AMES SALMONELLA TYPHIMURIUM, Strain/Indicator: TA100, Metabolic Activation: MOUSE, LIVER, S-9, Method: STANDARD PLATE inactive; negative | Test System: AMES SALMONELLA TYPHIMURIUM, Strain/Indicator: TA100, Metabolic Activation: NONE, Method: PREINCUBATION inactive; negative | Test System: AMES SALMONELLA TYPHIMURIUM, Strain/Indicator: TA100, Metabolic Activation: NONE, Method: STANDARD PLATE inactive; negative | Test System: AMES SALMONELLA TYPHIMURIUM, Strain/Indicator: TA100, Metabolic Activation: NONE, Method: SUSPENSION/PLATE inactive; negative | Test System: AMES SALMONELLA TYPHIMURIUM, Strain/Indicator: TA100, Metabolic Activation: RAT, LIVER, S-9, AROCLOR 1254 (10 OR 30%), Method: PREINCUBATION inactive; negative | Test System: AMES SALMONELLA TYPHIMURIUM, Strain/Indicator: TA100, Metabolic Activation: RAT, LIVER, S-9, AROCLOR 1254, Method: STANDARD PLATE inactive; negative | Test System: AMES SALMONELLA TYPHIMURIUM, Strain/Indicator: TA100, Metabolic Activation: RAT, LIVER, S-9, Method: STANDARD PLATE inactive; negative | Test System: AMES SALMONELLA TYPHIMURIUM, Strain/Indicator: TA102, Metabolic Activation: NONE, Method: SUSPENSION/PLATE inactive; negative | Test System: AMES SALMONELLA TYPHIMURIUM, Strain/Indicator: TA1535, Metabolic Activation: HAMSTER, LIVER, S-9, AROCLOR 1254 (10 OR 30%), Method: PREINCUBATION inactive; negative | Test System: AMES SALMONELLA TYPHIMURIUM, Strain/Indicator: TA1535, Metabolic Activation: HAMSTER, LIVER, S-9, AROCLOR 1254, Method: STANDARD PLATE inactive; negative | Test System: AMES SALMONELLA TYPHIMURIUM, Strain/Indicator: TA1535, Metabolic Activation: HAMSTER, LIVER, S-9, Method: STANDARD PLATE inactive; negative | Test System: AMES SALMONELLA TYPHIMURIUM, Strain/Indicator: TA1535, Metabolic Activation: MOUSE, LIVER, S-9, AROCLOR 1254, Method: STANDARD PLATE inactive; negative | Test System: AMES SALMONELLA TYPHIMURIUM, Strain/Indicator: TA1535, Metabolic Activation: MOUSE, LIVER, S-9, Method: STANDARD PLATE inactive; negative | Test System: AMES SALMONELLA TYPHIMURIUM, Strain/Indicator: TA1535, Metabolic Activation: NONE, Method: PREINCUBATION inactive; negative
